Measurements taken from paper PMC10989020, “Preclinical characterization of a non-peptidomimetic HIV protease inhibitor with improved metabolic stability” (Antimicrobial Agents and Chemotherapy, 2024).

Columns and labels:
[1] = Metabolic stability in human liver microsomes; type: in vitro ADME
[2] = Predicted clearance from cynomolgus monkey liver microsome fractions; type: in vitro ADME
[3] = In vivo pharmacokinetics in rat; parameters: species or system Sprague-Dawley rat
Protocol: Preclinical pharmacokinetic studies were performed in male Sprague–Dawley rats, beagle dogs, and cynomolgus monkeys (three animals per dosing group in each species) following federal and Institutional Animal Care and Use Committee (IACUC) guidelines as described previously ([32]). […] The oral fraction absorbed (F%) was calculated using the formula:
%F=( PO Dose AUC0−inf) x (IV Dose)/(IV Dose AUC0−inf) x (PO Dose)×100%

HIV-1 IIIb = assay: 5-day cytoprotection antiviral assay in MT-4 cells; type: cell-based
[4] = Cytotoxicity in uninfected MT-4 cells; type: cell-based, human; conditions: human, uninfected (mock infected) MT-4 T cells, MT-4 T cell line
Protocol: (§1) Compound cytotoxicity assessment in MT-4 cells, primary CD4+ T lymphocytes, and MDMs was carried out using a protocol identical to the antiviral assay except uninfected cells were used and tested with higher concentration ranges of test compounds. Assessment of cytotoxicity in additional human cell lines (Gal-PC3, Gal-HepG2, HEp-2, Huh-7, MRC-5, HepG2-NTCP, Huh7-Lunet HCV 1b and 2a replicons, NHBE, A549-hACE2) and primary human PBMCs (resting and stimulated with PHA/IL-2) and hepatocytes have been described previously ([19]). For all cytotoxicity assays, the CC50 value for puromycin was determined as a positive internal control and to assess assay sensitivity in each cell type. The effect of tested compounds on cell viability was measured using a CellTiter-Glo readout, performed according to the manufacturer’s recommendations.

[5] = Cytotoxicity in CD4+ T-lymphocytes; type: cell-based; conditions: human, uninfected (mock infected) primary CD4+ T lymphocytes
Protocol: as §1

in vitro = type: cell-based; conditions: human
Protocol: as §1

Cytotoxicity in NHBE = type: cell-based; conditions: human, NHBE cells
Protocol: as §1

[6] = Cytotoxicity in cell lines of the non-HIV virus panel (summary); type: cell-based; conditions: human, HepG2-NTCP, Huh7-Lunet replicon cells, NHBE, A549-ACE2, read-out: CC50 range in the corresponding cell lines
Protocol: as §1

Cytotoxicity in Huh-7 = type: cell-based; conditions: human, Huh-7 cells
Protocol: as §1

Cytotoxicity in MRC-5 = type: cell-based; conditions: human, MRC-5 cells
Protocol: as §1

[7] = Cytotoxicity in stimulated PBMCs; type: cell-based; conditions: human
Protocol: as §1

[8] = Cytotoxicity across human cell types (summary ranges); type: cell-based; conditions: read-out: mean CC50 range
Protocol: as §1

two HIV-2 isolates = assay: Antiviral assay in PBMCs with HIV-2 clinical isolates (RT endpoint); type: cell-based; conditions: Human immunodeficiency virus 2, PBMC, 168 h, 7-day, RT activity
Protocol: Antiviral assays using fresh human PBMCs independently infected with a panel of clinical HIV-1 and HIV-2 isolates were performed by Southern Research as a contracted research study and assessed 7 days post-infection using reverse transcriptase (RT) endpoint assay. Antiviral assays using HIV-1 reporter viruses containing patient-derived sequences encoding all of PR and a portion of RT (amino acids 1–313) and conferring resistance to FDA-approved HIV PIs were performed by Monogram Biosciences Inc. (South San Francisco, CA) using their previously described Phenosense assay ([25]).

HIV-1IIIb [9] = assay: Antiviral activity in MT-2/HIV-1IIIb cultures; type: cell-based; conditions: Human immunodeficiency virus 1
[10] = system: HIV-1LAI wild type and site-directed PR mutants; assay: microbe, parasite or virus in culture; type: cell-based
HIV-1IIIb [11] = assay: Two-drug in vitro combination assay in MT-2 cells (MacSynergy II); type: cell-based
Protocol: Anti-HIV-1 assays evaluating the in vitro antiviral effect of two-drug combinations were performed in MT-2 cells as previously described ([26]). Data were normalized to positive and negative controls in each plate and expressed as a percentage of protection from CPE-dependent cell death and analyzed with the MacSynergy II software. Combination data were analyzed at the 99% confidence level, with synergy/antagonism volumes defined as follows: high synergy (>100 µM^2%), moderate synergy (50 to <100 uM^2%), additivity (>−50 to <50 µM^2%), and antagonism (<−50 µM^2%).

[12] = human

In the case of `CC(C)(CC1(c2ccc(-c3cnn(C4CC4)n3)cc2)NC(=N)N(C(COC(=O)NC2(C(F)F)CC2)c2ccc(Cl)c(-c3ncnn3C(F)F)c2)C1=O)C(F)(F)F` (stereo not shown) [GS-9770], the “Eh% (percent predicted hepatic extraction)” value [1] is reported as 9%, the “Predicted CL (predicted human clearance)” value [1] is reported as 1.83 mL/min/kg and the half-life ([1]; read-out: T½ in the presence of human liver microsomes) is reported as greater than 6.58 h. The “in vitro predicted blood CL” value [2] was 2.5 mL/min/kg, the “F% (oral bioavailability)” value ([3]; 1 mg/kg IV and 5 mg/kg PO) was 45.9 ± 9.8% and the “tolerability at the doses tested” value ([3]; 1 mg/kg IV, 4–5 mg/kg PO) was “well tolerated”. For the same compound, the clearance ([3]; male, Sprague-Dawley, plasma, 1 mg/kg IV) was 3.5 mL/min/kg, the half-life ([3]; male, Sprague-Dawley, plasma, 1 mg/kg IV and 5 mg/kg PO, read-out: Terminal t1/2 (converted)) was 10.6 ± 1.4 h and the Vd ([3]; male, Sprague-Dawley, plasma, 1 mg/kg IV, read-out: Vss) was 2.7 ± 0.3 L/kg. The bioavailability ([3]; male, Sprague-Dawley, plasma, oral, 5 mg/kg, 1 mg/kg IV and 5 mg/kg PO, read-out: F% (oral bioavailability)) was 49%, the EC50 (HIV-1 IIIb; Human immunodeficiency virus 1, IIIB, T-cell, 120 h) was 0.011 ± 0.002 µM and the “95% effective concentration (EC95)” value (HIV-1 IIIb; calculated from MT-4/HIV-1IIIb EC50 and Hill coefficient) was 0.0216 µM. It also gave a CC50 [4] of 6.6 ± 1.3 µM, a CC50 [5] of 9 ± 0.4 µM and a CC50 (in vitro) of 15.1 ± 2.1 µM. For the same compound, the CC50 (Cytotoxicity in NHBE) was 4.7 ± 1.7 µM, the CC50 [6] was 4.7 to 15.1 µM and the CC50 (Cytotoxicity in Huh-7) was 17 ± 3 µM. It also gave a CC50 (Cytotoxicity in MRC-5) of 20 ± 6 µM, a CC50 [7] of 9.1 ± 0.6 µM and a CC50 ([8]; Gal-HepG2 and MRC-5 cells, five human cell lines (Gal-PC3, HEp-2, Huh7, Gal-HepG2, MRC-5)) of 13 to 20 µM. It also gave a CC50 ([8]; human, human cell lines and primary cells (15 cell types), across 15 different cell types) of 4.7 to 34 µM, a CC50 ([8]; primary human hepatocytes and PBMCs (stimulated and unstimulated)) of 9.1 to 34 µM and an EC50 (two HIV-2 isolates) of 0.026 µM. The EC50 (HIV-1IIIb [9]) was 0.004 µM, the EC50 ([10]; Human immunodeficiency virus 1, PR L24I M46L A77I V82A) was 0.0059 ± 0.0032 µM and the EC50 ([10]; Human immunodeficiency virus 1, PR L24I M46L I64V A77I V82A) was 0.0224 ± 0.0073 µM. For the same compound, the EC50 ([10]; Human immunodeficiency virus 1, PR M46L A77I V82A) was 0.0083 ± 0.0018 µM, the EC50 ([10]; Human immunodeficiency virus 1, PR V82A) was 0.0082 ± 0.0032 µM and the EC50 ([10]; Human immunodeficiency virus 1, Wild type (WT) HIV-1LAI) was 0.0031 ± 0.0016 µM. The Antagonism volume (HIV-1IIIb [11]) was −3 ± 3 µM^2.%, the Combination effect (HIV-1IIIb [11]) was “Additive” and the Synergy volume (HIV-1IIIb [11]) was 23 ± 14 µM^2.%. The “predicted plasma half-life in humans” value [12] was ~ 18.5 hours.
